One block for each compound: values may come before it. The source made the active and inactive calls. No cut-off for these calls is given here.
Experiments:
Rh4 = experiment: Upregulation of TNF gene expression in human Rh4 cells; assay type: functional, cell-based
[1] = Cytotoxicity against human Rh4 cells transfected with CMV-Luc construct assessed as inhibition of cell growth at 100 uM by luciferase assay; assay type: toxicity, cell-based; details: rh4, 100 µM
[2] = biological target: T1, PAX3/FOXO1 (Homo sapiens) (UniProt Q12778+P23760); experiment: Inhibition of PAX3-FOXO1 driven transcriptional activity in human Rh4 cells assessed as upregulation of GADD45B gene expression at 20 uM incubated for 6 hrs by GSEA analysis; assay type: cell-based
[3] = biological target: T1, PAX3/FOXO1 (Homo sapiens); experiment: Inhibition of PAX3-FOXO1 driven transcriptional activity in human Rh4 cells assessed as upregulation of TIMP3 gene expression at 20 uM incubated for 6 hrs by GSEA analysis; assay type: cell-based
[4] = biological target: T1, PAX3/FOXO1 (Homo sapiens); experiment: Inhibition of PAX3-FOXO1 driven transcriptional activity in human Rh4 cells assessed as upregulation of SOX9 gene expression at 20 uM incubated for 6 hrs by GSEA analysis; assay type: cell-based
[5] = biological target: T1, PAX3/FOXO1 (Homo sapiens); experiment: Inhibition of PAX3-FOXO1 driven transcriptional activity in human Rh4 cells assessed as upregulation of SERPINE1 gene expression at 20 uM incubated for 6 hrs by GSEA analysis; assay type: cell-based
[6] = biological target: T1, PAX3/FOXO1 (Homo sapiens); experiment: Inhibition of PAX3-FOXO1 driven transcriptional activity in human Rh4 cells assessed as upregulation of LBH gene expression at 20 uM incubated for 6 hrs by GSEA analysis; assay type: cell-based
[7] = biological target: T1, PAX3/FOXO1 (Homo sapiens); experiment: Inhibition of PAX3-FOXO1 driven transcriptional activity in human Rh4 cells assessed as upregulation of BCL2L1 gene expression at 20 uM incubated for 6 hrs by GSEA analysis; assay type: cell-based
[8] = biological target: T1, PAX3/FOXO1 (Homo sapiens); experiment: Inhibition of PAX3-FOXO1 driven transcriptional activity in human Rh4 cells assessed as upregulation of VEGFA gene expression at 20 uM incubated for 6 hrs by GSEA analysis; assay type: cell-based
[9] = biological target: T1, PAX3/FOXO1 (Homo sapiens); experiment: Inhibition of PAX3-FOXO1 driven transcriptional activity in human Rh4 cells assessed as upregulation of EPHA2 gene expression at 20 uM incubated for 6 hrs by GSEA analysis; assay type: cell-based
[10] = biological target: T1, PAX3/FOXO1 (Homo sapiens); experiment: Inhibition of PAX3-FOXO1 driven transcriptional activity in human Rh4 cells assessed as upregulation of IL-11 gene expression at 20 uM incubated for 6 hrs by GSEA analysis; assay type: cell-based
[11] = biological target: T1, PAX3/FOXO1 (Homo sapiens); experiment: Inhibition of PAX3-FOXO1 driven transcriptional activity in human Rh4 cells assessed as upregulation of KLF10 gene expression at 20 uM incubated for 6 hrs by GSEA analysis; assay type: cell-based
[12] = biological target: T1, PAX3/FOXO1 (Homo sapiens); experiment: Inhibition of PAX3-FOXO1 driven transcriptional activity in human Rh4 cells assessed as upregulation of KIT gene expression at 20 uM incubated for 6 hrs by GSEA analysis; assay type: cell-based
[13] = biological target: T1, PAX3/FOXO1 (Homo sapiens); experiment: Inhibition of PAX3-FOXO1 driven transcriptional activity in human Rh4 cells assessed as upregulation of ID1 gene expression at 20 uM incubated for 6 hrs by GSEA analysis; assay type: cell-based
[14] = biological target: T1, PAX3/FOXO1 (Homo sapiens); experiment: Inhibition of PAX3-FOXO1 driven transcriptional activity in human Rh4 cells assessed as upregulation of DGKD gene expression at 20 uM incubated for 6 hrs by GSEA analysis; assay type: cell-based
[15] = biological target: T1, PAX3/FOXO1 (Homo sapiens); experiment: Inhibition of PAX3-FOXO1 driven transcriptional activity in human Rh4 cells assessed as upregulation of TNFRSF12A gene expression at 20 uM incubated for 6 hrs by GSEA analysis; assay type: cell-based
PAX3/FOXO1 = PAX3/FOXO1 (Homo sapiens, UniProt P23760+Q12778); experiment: Inhibition of PAX3-FOXO1 driven transcriptional activity in human Rh4 cells transfected with ALK-Luc construct incubated for 24 hrs by luciferase assay; assay type: cell-based
PAX3/FOXO1, sequence (Q12778 whole entry): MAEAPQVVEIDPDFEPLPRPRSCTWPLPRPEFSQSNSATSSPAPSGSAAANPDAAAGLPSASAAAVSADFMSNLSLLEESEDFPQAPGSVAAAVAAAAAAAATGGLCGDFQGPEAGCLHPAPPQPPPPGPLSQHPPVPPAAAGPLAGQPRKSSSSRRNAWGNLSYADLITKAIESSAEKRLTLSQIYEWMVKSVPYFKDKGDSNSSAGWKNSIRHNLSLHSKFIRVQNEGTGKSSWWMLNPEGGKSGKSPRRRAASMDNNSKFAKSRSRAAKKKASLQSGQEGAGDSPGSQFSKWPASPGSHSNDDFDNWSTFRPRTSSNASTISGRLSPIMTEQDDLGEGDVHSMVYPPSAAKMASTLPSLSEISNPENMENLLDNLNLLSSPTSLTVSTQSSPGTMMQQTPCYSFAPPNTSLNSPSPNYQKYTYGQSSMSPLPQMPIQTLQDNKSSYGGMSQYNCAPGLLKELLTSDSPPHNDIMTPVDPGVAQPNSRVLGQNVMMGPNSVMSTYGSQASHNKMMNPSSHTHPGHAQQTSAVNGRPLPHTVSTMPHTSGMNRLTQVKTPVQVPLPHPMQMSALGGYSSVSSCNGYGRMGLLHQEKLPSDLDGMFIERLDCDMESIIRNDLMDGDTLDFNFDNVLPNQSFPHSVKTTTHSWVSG
PAX3/FOXO1, sequence (P23760 whole entry): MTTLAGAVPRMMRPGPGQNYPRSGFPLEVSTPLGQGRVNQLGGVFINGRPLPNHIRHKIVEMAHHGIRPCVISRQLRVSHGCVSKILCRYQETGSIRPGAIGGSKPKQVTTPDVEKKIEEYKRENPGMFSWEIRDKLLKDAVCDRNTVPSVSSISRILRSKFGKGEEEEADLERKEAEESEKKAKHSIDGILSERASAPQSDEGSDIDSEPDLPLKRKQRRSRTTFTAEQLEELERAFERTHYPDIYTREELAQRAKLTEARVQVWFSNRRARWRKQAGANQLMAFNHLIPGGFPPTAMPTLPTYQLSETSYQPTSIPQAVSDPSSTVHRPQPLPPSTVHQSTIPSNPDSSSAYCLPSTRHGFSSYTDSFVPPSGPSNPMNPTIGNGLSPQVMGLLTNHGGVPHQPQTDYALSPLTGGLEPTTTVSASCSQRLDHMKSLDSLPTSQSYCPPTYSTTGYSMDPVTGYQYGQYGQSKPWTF

T1 sequence (P23760 whole entry, looked up): as the sequence (P23760 whole entry) above
T1 sequence (Q12778 whole entry, looked up): as the sequence (Q12778 whole entry) above

SMILES: CC(C)=CC(=O)Nc1nc2c([nH]1)C(C)c1[nH]c(NC(=O)c3ccccc3)nc1CC2 (stereo unspecified)
Activity (Rh4): Active | Activity [1]: Toxic | inhibition [2]: Active | inhibition [3]: Active | inhibition [4]: Active | inhibition [5]: Active | inhibition [6]: Active | inhibition [7]: Active | inhibition [8]: Active | inhibition [9]: Active | inhibition [10]: Active | inhibition [11]: Active | inhibition [12]: Active | inhibition [13]: Active | inhibition [14]: Active | inhibition [15]: Active | IC50 (PAX3/FOXO1): 17 µM

SMILES: CC(C)C(=O)Nc1nc2c([nH]1)C(C)c1[nH]c(NC(=O)c3ccccc3)nc1CC2 (stereo unspecified)
Activity [1]: Toxic | IC50 (PAX3/FOXO1): 67 µM

SMILES: CC[C@H](C)C(=O)Nc1nc2c([nH]1)C(C)c1[nH]c(NC(=O)c3ccccc3)nc1CC2 (stereo partly specified)
Activity [1]: Toxic | IC50 (PAX3/FOXO1): 26 µM

The next lines start with results.

IC50 (PAX3/FOXO1): 42 µM
SMILES: CC[C@H](C)C(=O)Nc1nc2c([nH]1)C(C)c1[nH]c(NC(=O)/C=C/c3ccccc3)nc1CC2 (stereo partly specified)
Activity [1]: Toxic

IC50 (PAX3/FOXO1): 13 µM
SMILES: CC1c2[nH]c(NC(=O)c3ccccc3)nc2CCc2nc(NC(=O)c3ccccc3)[nH]c21
Activity (Rh4): Active | Activity [1]: Toxic

Source: ChEMBL document CHEMBL5126553, “Dentithecamides A-H, Diacylated Zoanthoxanthin Derivatives with PAX3-FOXO1 Inhibitory Activity from the Hydroid Dentitheca habereri” (J Nat Prod, 2022)
